Our source for the kon values is BindingDB's records for doi:10.1016/s0960-894x(98)00253-4 (San Francisco State University, 1999).

For this test, the target named is T1, Gamma-glutamyl hydrolase (Homo sapiens, UniProt Q92820).
T1 sequence (Q92820 whole entry): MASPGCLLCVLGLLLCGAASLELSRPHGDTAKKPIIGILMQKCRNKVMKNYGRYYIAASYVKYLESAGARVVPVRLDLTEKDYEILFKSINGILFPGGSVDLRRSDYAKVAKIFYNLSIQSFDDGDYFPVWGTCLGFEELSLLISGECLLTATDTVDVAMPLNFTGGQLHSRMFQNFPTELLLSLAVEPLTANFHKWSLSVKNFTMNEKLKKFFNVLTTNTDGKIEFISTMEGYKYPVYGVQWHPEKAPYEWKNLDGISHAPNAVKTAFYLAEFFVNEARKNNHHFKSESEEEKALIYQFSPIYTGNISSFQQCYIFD
As to the kind of experiment: ChEBML_68750. Particulars: read-out: kon (M-1-s-1). On the procedure: Compound was tested for inhibitory potency against gamma-Glutamyl Hydrolase.

Molecules are shown by their SMILES.

Take `COP(=O)(N[C@@H](CCC(=O)O)C(=O)O)OC`: the kon came to 177000 M⁻¹ s⁻¹.
Then `COP(=O)(N[C@@H](CCC(=O)O)C(=O)O)c1ccccc1` (some centres not stated), with 4400 M⁻¹ s⁻¹.

One may read the kon as a measure of how fast the partners come together.
